# In article PMC4193996 (Journal of Experimental & Clinical Cancer Research : CR, 2014):
# Tests used:
# [1] = system: h-Tel quadruplex DNA sequence 5'-d[AGGG(TTAGGG)3]-3'; assay: SPR binding to quadruplex DNA; design: species or system human
# Description: Oligonucleotides 5’-biotin-d [AG3 (T2AG3)3] quadruplex and 5’-biotin-CGA3T3C(CT)2GA3T3CG were purchased from Midland Certified Reagent Company (Midland, TX). Purification of DNA, preparation of solutions, collection of data, and analysis of results were conducted according to methods adopted in an earlier study.
# This technique takes advantage of the refractive index change elicits by the binding of the drug with the h-Tel quadruplex DNA sequence 5’-d[AGGG(TTAGGG)3]-3’ or an alternating hairpin duplex sequence immobilized on a sensor chip surface.
# [2] = system: hairpin duplex, 5'-biotin-CGA3T3C(CT)2GA3T3CG (DNA, hairpin) CGAAATTTCCTCTGAAATTTCG; assay: SPR
# [3] = molecular target: T1, human recombinant M2 muscarinic receptor (Homo sapiens, UniProt P08172); assay: M2 muscarinic receptor inhibition assay; assay type: binding; conditions: read-out: Muscarinic (M2) % inh @1 μM
# T1 sequence (P08172 1-466): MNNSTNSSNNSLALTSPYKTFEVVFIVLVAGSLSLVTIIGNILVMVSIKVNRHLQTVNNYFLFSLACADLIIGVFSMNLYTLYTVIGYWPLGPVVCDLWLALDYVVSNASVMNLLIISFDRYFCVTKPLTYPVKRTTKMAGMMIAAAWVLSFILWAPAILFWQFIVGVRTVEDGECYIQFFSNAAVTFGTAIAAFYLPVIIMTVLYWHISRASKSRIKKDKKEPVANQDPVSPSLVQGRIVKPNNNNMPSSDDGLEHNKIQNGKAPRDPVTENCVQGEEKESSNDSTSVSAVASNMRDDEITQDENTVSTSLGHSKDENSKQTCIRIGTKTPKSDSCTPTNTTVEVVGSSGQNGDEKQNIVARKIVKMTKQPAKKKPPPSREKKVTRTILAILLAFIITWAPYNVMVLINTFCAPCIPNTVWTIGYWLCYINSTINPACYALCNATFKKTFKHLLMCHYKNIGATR
# Description: hEGR study and the M2 and the β2 receptor inhibition assay were performed as previously reported.
# The new G-quadruplex ligands were designed in an attempt to obtain molecules with improved toxicological and on-target profiles, but maintaining the same favorable chemical and pharmacological features of the lead compound 1. With the aim of selecting the best variants, a step by step comparative analysis of their off- and on-target properties was performed. Initially the new molecules were tested for their ability to interact with and inhibit the human recombinant β2 adrenergic and M2 muscarinic receptors, and to reduce the hERG tail current in a patch clamp assay. […] Therefore, we might expect that the new ligands would impair cardiac functionality to a lesser extent than the lead molecule does.
# [4] = system: human 'normal' lung WI-38 cells; assay: MTT proliferation assay, WI-38; assay type: cell-based
# Description: Normal WI-38 diploid human lung fibroblasts and the human colorectal adenocarcinoma HT29 cells were obtained from American Type Culture Collection (Manassas, VA, USA). BJ fibroblasts expressing hTERT and SV40 early region (BJ-EHLT) were obtained as previously reported. Cells were grown in Dulbecco Modified Eagle Medium (D-MEM, Invitrogen Carlsbad, CA, USA) supplemented with 10% fetal calf serum, 2 mM L-glutamin and antibiotics.
# MTT (3-(4,5-Dimethylthiazol-2-yl)-2,5-diphenyltetrazolium Bromide) assay was performed in treated and untreated cells for 96 hours. Cells were incubated with MTT solution (Sigma-Aldrich), and the purple formazan crystals were dissolved in isopropanol. Optical densities (OD) at 540 nm was determined on microplate reader.
# Firstly, we investigated if they were able to efficiently promote growth inhibition of tumor cells without affecting the survival of normal cells in vitro. In Table 1 we report for each compound the concentration causing 50% of growth inhibition (GI50) calculated by performing a proliferation assay in the human colon cancer cell line HT-29 or in the human ‘normal’ lung WI-38 cells. […] On the basis of results described so far, we decided to exclude from the further analysis ligand 10 for its high value of hERG inhibition (95%) (Table 1).
# [5] = system: HT29 cells; assay: Colony forming ability, single agent or combined with SN-38; assay type: cell-based, human
# Description: The HT29 cells were seeded in 60 mm- Petri dishes at a density of 5x10^4 cells/ plate in DMEM medium plus 10% serum FCS. After 24 hours cells were exposed to the following drugs: Ethyl-10-hydroxy-camptothecin (SN-38; 0.2, 0.4, 0.8 μM for 2 hrs), compound 8 (at 0.1, 0.2 and 0.4 μM for 96 hours) and compound 1 (0.5 and 1 μM for 96 hours). In the combination experiments the two different sequence of drug administration were evaluated: campthotecin followed by G-quadruplex ligands and the inverse sequence at fixed equipotent ratios. The medium containing the first drug was removed and replaced with fresh medium containing the second drug. Colony forming ability was evaluated as previously reported.
# Synergism, additivity, and antagonism were assessed by isobologram analysis as reported previously. Combination index (CI) values <0.9, > 0.9 < 1.2, and >1.2 indicate synergism, additivity, and antagonism, respectively. The Student’s t-test (unpaired, two-tailed) was used for comparing statistical differences. Differences were considered statistically significant when P < 0.05.
# We have previously reported that compound 1 in combination therapy with topoisomerase (TOPO) I inhibitors (Camptothecins) produced a synergistic antitumoral activitiy in in vitro and in vivo models. […] The study of in vitro interaction between agent 8 and ethyl-10-hydroxy-camptothecin (SN-38), the active metabolite of camptothecin Irinotecan, was preceded by experiments in which the cell colony-forming ability of the human colorectal adenocarcinoma HT29 cells was evaluated at different doses of compound 1 or 8. […]
# Figure 3 Anti-tumor efficacy of compound 8 in single or combined administration with the topoisomerase I inhibitor SN-38. […] Surviving fractions were calculated as the ratio of absolute survival of the treated sample/absolute survival of the untreated sample. […] In the histograms the surviving fractions calculated as in (A) are reported. […] (C) Combination Index for SN-38 and 8 was calculated by the Chou–Talalay method. […]
compound,measurement,setting,value
CC(=O)NCC#Cc1ccc2c3cccc4c3c([n+](C)c2c1)-c1ccccc1N4C [Compound 8],Quadruplex DNA affinity K,[1],"14,2 x10^6 M^−1"
same,Quadruplex/duplex ratio,[1]; quadruplex vs duplex affinity,"15,8"
same,K,[2],900000 M⁻¹
same,inhibition at 1 µM,[3],99%
same,Ratio PMX WI38/HT29,[4]; GI50 WI-38 / GI50 HT-29,"33,5"
same,GI50,"[4]; Homo sapiens, WI-38, MTT, 96 hours",25.1 µM
same,"cell survival (colony-forming ability), single agent","[5]; HT29, 96 hours, 0.1 to 0.8 μM",inhibited cell survival in a dose-dependent manner like compound 1 but more efficiently so
same,"Interaction with SN-38, inverse sequence","[5]; HT29, G4-ligand followed by SN-38",additive or slight synergistic interaction
same,Combination Index (CI) with SN-38,"[5]; HT29, SN-38 (2 hrs) followed by the G4-ligand (96 hours)",< 0.5
